Columns and labels:
[1] = tested on: normal skin fibroblast cell line GM38
Method: (§1) To confirm, baseline toxicity experiments were conducted with the fully assembled nanoparticles and its constituents. […] MTT assays detected changes in cell proliferation and viability.

[2] = tested on: prostate cancer cell line DU145
Method: as §1

[3] = tested on: prostate cancer cell line PC3
Method: as §1

Measured: baseline cytotoxicity over increasing doses

C=CC1=C(C)c2cc3[nH]c(cc4nc(cc5[nH]c(cc1n2)c(C)c5CCC(=O)O)C(CCC(=O)O)=C4C)c(C)c3C=C [PPIX, protoporphyrin IX]
No appreciable differences: all assays above

— patent publication US20210268129A1, “Theranostic Radiophotodynamic Therapy Nanoparticles” (priority 2018, published 2021)
